Test results: patent US20090048221A1, “Conjugates with Anti-Inflammatory Activity” (priority 2004, published 2009)
Where a name gives a salt, the structure may show the parent alone. Blank lines part the entries; values can stand above or below the compound they belong to.

Tests used:
Male Balb/cJ mice = assay: Lung neutrophilia induced by bacterial lipopolysaccharide; format: in vivo; details: 24 hours after LPS
Experimental: Male Balb/cJ mice (Iffa Credo, Lyon, France) weighing 25 g were randomly grouped in three groups: test, positive and negative control (10 animals per each group). Vehicle, beclomethasone dipropionate or test substance were applied intranasally (i.n.) to Balb/cJ mice. Thirty minutes later, 60 μl of bacterial lipopolysaccharide (LPS), dissolved in PBS at the concentration of 167 μg/ml, was given i.n. to all groups except the negative control group, which received the same volume of PBS. Animals were sacrificed after 24 hours and bronchoalveolar lavage fluid (BALF) collected for determination of neutrophils and […] and TNF-α concentration. Cytokines were measured using sandwich ELISA (R&D Systems). Statistical analysis was performed using GraphPad prism software, one-way ANOVA Turkey Kramer Multiple comparison test.

[1] = system: Mouse T-cell hybridoma 13; assay: Inhibition of mouse T-cell hybridoma 13 proliferation as a result of apoptosis induction; format: cell-based; details: for IC50: Mus musculus, T-cell, [3H]thymidine incorporation, overnight incubation; for inhibition of T-cell hybridoma 13 proliferation: in the concentrations from 1 μM to 1 nM
Experimental: Triplicates of test steroid dilution in RPMI medium (Institute of Immunology, Zagreb) with 10% FBS were added to a 96 well plate. […] Then 1 μCi of [^3H]thymidine (Pharmacia, Piscataway, N.J. USA) was added and the mixture was incubated for an additional 3 hours. The cells were harvested by applying a vacuum over GF/C filter (Packard). Onto each well, 30 μl of Microscynt O scintillation liquid (Packard) was added and the incorporated radioactivity was measured on a β-scintillation counter (Packard).

[2] = biological target: T1, human glucocorticoid receptor (Homo sapiens, UniProt P04150); assay: Assay of binding to human glucocorticoid receptor ([3H]dexamethasone displacement in transfected COS-1 cells); details: 24 nM [3H]dexamethasone, COS-1 cells transfected with human GR alpha
T1 construct: expressed in transfected cells; host or cells: COS-1 cells, transient transfection with pcDNA3.1 Hygro(+) carrying the cloned cDNA
T1 sequence (P04150 1-777): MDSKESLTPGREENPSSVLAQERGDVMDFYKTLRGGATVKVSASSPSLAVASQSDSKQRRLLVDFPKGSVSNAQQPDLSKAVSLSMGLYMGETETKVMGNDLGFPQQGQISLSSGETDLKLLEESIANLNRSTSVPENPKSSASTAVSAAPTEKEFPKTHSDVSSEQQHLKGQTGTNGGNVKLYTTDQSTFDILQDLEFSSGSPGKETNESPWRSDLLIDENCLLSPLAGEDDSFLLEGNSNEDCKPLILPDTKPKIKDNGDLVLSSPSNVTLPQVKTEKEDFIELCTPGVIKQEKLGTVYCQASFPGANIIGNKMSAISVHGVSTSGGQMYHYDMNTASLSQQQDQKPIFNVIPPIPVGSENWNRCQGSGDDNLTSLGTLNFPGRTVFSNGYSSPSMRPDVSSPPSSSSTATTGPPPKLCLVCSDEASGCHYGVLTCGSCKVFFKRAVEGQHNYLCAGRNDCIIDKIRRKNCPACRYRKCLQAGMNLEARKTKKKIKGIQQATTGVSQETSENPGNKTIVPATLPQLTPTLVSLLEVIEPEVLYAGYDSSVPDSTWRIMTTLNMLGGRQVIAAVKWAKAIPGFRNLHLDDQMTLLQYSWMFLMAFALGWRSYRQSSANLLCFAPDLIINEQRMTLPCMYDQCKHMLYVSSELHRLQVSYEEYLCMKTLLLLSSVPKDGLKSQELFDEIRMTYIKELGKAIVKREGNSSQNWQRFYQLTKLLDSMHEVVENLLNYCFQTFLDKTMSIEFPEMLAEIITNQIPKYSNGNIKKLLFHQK
Experimental: The cells were incubated at 37° C. in an atmosphere with 5% CO2 and after 5 hours the same volume of 20% FBS/DMEM was added.

[3] = system: interleukin 4, interleukin 5 and interferon γ production; assay: Inhibition of interleukin 4, interleukin 5 and interferon γ production by concanavalin-A induced murine splenocytes; format: cell-based, Balb/C mice; details: in concentrations from 1 μM to 1 nM; concanavalin-A stimulated splenocytes, 72 hours
Source text: Splenocytes were isolated from the spleen of Balb/C mice sacrificed by thiopental injection (Pliva, Zagreb, Croatia). Spleens were chopped and mononuclear cells separated on Histopaque 1083 (Sigma Diagnostics, St. Louis, Mo. USA Cat. No 1083-1). Into a 96-well plate, compounds diluted in RPMI medium (Institute of Immunology, Zagreb, Croatia) were pipetted with 10% foetal bovine serum (Biowhittaker) and cells (200000 per well) in the same medium, and concanavalin-A stimulator (Sigma 2002-2003 cat. No C5275) at a final concentration of […] were added. The positive control, in place of the dilution of compounds, consisted of RPMI medium with 10% foetal bovine serum and concanavalin-A in the same concentration of. Cells were incubated for 72 hours at 37° C., 95% humidity and in an atmosphere with 5% CO2. Until determination of cytokines, the cells were frozen at −70° C.
Cytokines interleukin 4, interleukin 5 and interferon γ were determined by the specific ELISA method, according to manufacturer's recommendations (R&D).
Inhibition (as percentage) was calculated using the following formula:
% inh=(1−[concentration of cytokines in sample]/[concentration of cytokines in positive control])*100

Male Sprague-Dawley rats = assay: Croton oil induced ear edema in male Sprague-Dawley rats; format: in vivo; details: applied topically once, n=8
Experimental: Test and reference substances, as well as vehicle (acetone), were administered topically to the inner and the outer surface of the right ear of each animal with an automatic pipette, in a volume of 60 μL/ear (30 μL/surface), thirty minutes before the croton oil challenge. Test substances were administered in the doses of 2 or 5 mg/ear/60 μL of acetone. Dexamethasone was administered in the dose of 1 mg/ear/60 μL of acetone. Thirty minutes later, 20% croton oil emulsion in acetone was applied topically to the inner and the outer surface of the right ear of each animal with an automatic pipette, in a volume of 60 μL/ear (30 μL/surface). Five hours after the challenge, animals were euthanized by asphyxiation in 100% CO2 atmosphere. For assessing the auricular edema, 8 mm discs were cut out of left and right auricular pinna and weighed. The degree of edema was calculated by subtracting the weight of 8 mm disc of the untreated ear from that of the treated contralateral ear.

Sprague-Dawley rats = assay: Subcutaneous sponge implantation model; details: seven days after implantation; for thymus weight: vs vehicle
Experimental: In this model, local inflammation was followed by determination of newly formed granulation tissue together with determination of compound effects on plasma corticosterone concentration and thymus weight in Sprague-Dawley rats. Sprague-Dawley rats were purchased from Iffa Credo, Lyon, France and 10 weeks old male rats were used. […] All substances were dissolved in ethanol, applied onto sterile sponges and allowed to dry in the laminar flow cabinet prior to the sponge implantation.
On day 0, animals were anaesthetized by inhalation of Isoflurane (Abbott Laboratories Ltd., USA) and 5% oxygen, delivered in an anesthesia induction chamber (Stoelting Co., USA). Gas scavenging was provided using the Fluovac 240V system (International Market Supply, England). Anesthesia was maintained using a gas anesthesia mask (Stoelting Co., USA) and pedal reflex response where checked at intervals. The implantation area was shaved and subsequently disinfected using Pursept solution (MERZ Hygiene, Germany). Using strict aseptic procedure, two 1 cm long skin incisions were made just below the left and right regio scapularis. Small subcutaneous pockets were made on the left side of the left wound and the right side of the right wound using blunt forceps. In all animals, sponges with vehicle or dissolved substance applied were inserted on the left side and non-treated ones on the right side. Skin was closed with sutures and disinfected with Pursept solution. On day 7 rats were anaesthetized by intraperitoneal administration of Thiopental (PLIVA; 0.5 mL/100g body weight) and exanguinated by puncturing A. carolis com.
Blood was collected into Vacutainer tubes (Becton Dickinson, USA) for plasma corticosterone concentration analysis. Corticosterone levels in plasma were measured using R&D Systems kit for quantitative determination of corticosterone. Competitive ELISA was performed with alkaline phosphatase conjugated corticosterone as competitor. Samples were incubated for 2 hours, and after successive washing, substrate was added. After 1 h absorbance was measured on 405 mm. OD values are inversely correlated with increasing corticosterone concentrations. Corticosterone concentrations were calculated using calibration curve generated with corticosterone standard concentration dilutions. For assessing the thymus weight, thymuses were extirpated and weighed using the analytical balance. The reduction of thymus size in treated animals was presented as a percentage of that in control rats (0%).
For assessing the newly formed granulation tissue, sponges were carefully excised and each sponge perforated with sterile surgical sewing suture to keep it on the top of the Falcon tube during centrifugation. Tubes were centrifuged (1000 rpm per 10 minutes). […]

Male Balb/C mice = assay: Model of lung eosinophilia in mice (OVA sensitised and challenged)
Experimental: Male Balb/C mice with a body weight of 20-25 g were randomly divided into groups, and sensitised by an i.p. injection of ovalbumin (OVA, Sigma, St. Louis, Mo. USA) on day zero and day fourteen. On the twentieth day, the mice were subjected to a challenge test by i.n. (intranasal) application of OVA (positive control or test groups) or PBS (negative control). 48 hours after i.n. application of OVA, the animals were anaesthetized and the lungs were rinsed with 1 mL of PBS. The cells were separated on Cytospin 3 cytocentrifuge (Shandon). The cells were stained in Diff-Quick (Dade) and the percentage of eosinophils was determined by differential counting of at least 100 cells.
Beclomethasone (Pliva d.d.) were used as a standard substances, with positive and negative control. The compounds were administered daily i.n. or i.p. in different doses 2 days before the challenge test and up to the completion of the test.
Corticosterone levels were determined in plasma from each animal using a kit for determination of corticosterone (R&D systems).

[4] = 4 mg/kg i.n., vs positive control

SMILES: CCC(=O)OCC(=O)[C@@]1(OC(=O)CC)[C@@H](C)C[C@H]2[C@@H]3CCC4=CC(=O)C=C[C@]4(C)[C@@]3(Cl)[C@@H](O)C[C@@]21C [Beclometbasone dipropionate, beclomethasone dipropionate, reference compound]
concentration of IL-6 in BALF (Male Balb/cJ mice; 2 mg/kg i.n.): non-significantly decreased
concentration of TNF-α in BALF (Male Balb/cJ mice; 2 mg/kg i.n.): non-significantly decreased
neutrophils in BALF (Male Balb/cJ mice; 2 mg/kg i.n.): non-significantly decreased

SMILES: CC[C@H]1OC(=O)[C@H](C)[C@@H](O)[C@H](C)[C@@H](O)[C@](C)(O)C[C@@H](C)CN(CCCNCCC(=O)O[C@]2(C(=O)OC)[C@H](C)CC3C4CCC5=CC(=O)C=C[C@]5(C)[C@@]4(F)[C@@H](O)C[C@@]32C)[C@H](C)[C@@H](O)[C@]1(C)O (stereo partly drawn) [Compound 7]
IC50 [1]: 0.464 µM
inhibition of T-cell hybridoma 13 proliferation [1]: exhibit inhibition
affinity for the glucocorticoid receptor (displacement of radioactive dexamethasone) [2]: have affinity for the glucocorticoid receptor

SMILES: CC[C@H]1OC(=O)[C@H](C)[C@@H](O)[C@H](C)[C@@H](O)[C@](C)(O)C[C@@H](C)CN(CCCNCCC(=O)O[C@]2(C(=O)OC)[C@H](C)CC3C4C[C@H](F)C5=CC(=O)C=C[C@]5(C)C4[C@@H](O)C[C@@]32C)[C@H](C)[C@@H](O)[C@]1(C)O (stereo partly drawn) [Compound 9]
IC50 [1]: 0.303 µM
inhibition of T-cell hybridoma 13 proliferation [1]: exhibit inhibition

SMILES: CC[C@H]1OC(=O)[C@H](C)[C@@H](O)[C@H](C)[C@@H](O)[C@](C)(O)C[C@@H](C)CN(CCCNCCC(=O)O[C@]2(C(=O)OC)[C@H](C)CC3C4C[C@H](F)C5=CC(=O)C=C[C@]5(C)[C@@]4(F)[C@@H](O)C[C@@]32C)[C@H](C)[C@@H](O)[C@]1(C)O (stereo partly drawn) [Compound 10 phosphate salt]
concentration of IL-6 in BALF (Male Balb/cJ mice; [4]): statistically significantly decreased
concentration of TNF-α in BALF (Male Balb/cJ mice; [4]): statistically significantly decreased
neutrophils in BALF (Male Balb/cJ mice; [4]): statistically significantly decreased

SMILES: CC[C@H]1OC(=O)[C@H](C)[C@@H](O)[C@H](C)[C@@H](O)[C@](C)(O)C[C@@H](C)CN(CCCNCCC(=O)O[C@]2(C(=O)OC)[C@H](C)CC3C4C[C@H](F)C5=CC(=O)C=C[C@]5(C)[C@@]4(F)[C@@H](O)C[C@@]32C)[C@H](C)[C@@H](O)[C@]1(C)O (stereo partly drawn) [Compound 10]
IC50 [1]: 0.0417 µM
inhibition of T-cell hybridoma 13 proliferation [1]: exhibit inhibition
inhibition of the production of cytokines [3]: inhibits the production of cytokines
reduction of ear edema (Male Sprague-Dawley rats; 2 mg/ear): 51.58%
reduction of ear edema (Male Sprague-Dawley rats; 5 mg/ear): 85.53%
granulation tissue formation (Sprague-Dawley rats; 10 mg/sponge, vs non-treated and vehicle sponges): significantly reduced
affinity for the glucocorticoid receptor (displacement of radioactive dexamethasone) [2]: have affinity for the glucocorticoid receptor
number of eosinophils in the lung rinse with respect to positive control (Male Balb/C mice; t-test, p<0.05): statistically significantly reduced

SMILES: CC[C@H]1OC(=O)[C@H](C)[C@@H](O)[C@H](C)[C@@H](O)[C@](C)(O)C[C@@H](C)CN(CCCNCCC(=O)O[C@]2(C(=O)OC)CCC3C4C[C@H](C)C5=CC(=O)C=C[C@]5(C)C4[C@@H](O)C[C@@]32C)[C@H](C)[C@@H](O)[C@]1(C)O (stereo partly drawn) [Compound 13]
IC50 [1]: 0.287 µM

SMILES: CC[C@H]1OC(=O)[C@H](C)[C@@H](O)[C@H](C)[C@@H](O)[C@](C)(O)C[C@@H](C)CN(CCCNC(=O)CCCCCCCCCCCNCCC(=O)O[C@]2(C(=O)OC)[C@H](C)CC3C4C[C@H](F)C5=CC(=O)C=C[C@]5(C)[C@@]4(F)[C@@H](O)C[C@@]32C)[C@H](C)[C@@H](O)[C@]1(C)O (stereo partly drawn) [Compound 14]
IC50 [1]: 0.455 µM

SMILES: CCOC(=O)[C@@]1(OC(=O)CCNCCCN2C[C@H](C)C[C@@](C)(O)[C@H](O)[C@@H](C)[C@H](O)[C@@H](C)C(=O)O[C@H](CC)[C@@](C)(O)[C@H](O)[C@H]2C)[C@H](C)CC2C3C[C@H](F)C4=CC(=O)C=C[C@]4(C)[C@@]3(F)[C@@H](O)C[C@@]21C (stereo partly drawn) [Compound 16]
IC50 [1]: 0.112 µM

SMILES: CC[C@H]1OC(=O)[C@H](C)[C@@H](O)[C@H](C)[C@@H](O)[C@](C)(O)C[C@@H](C)CN(CCCCNCCC(=O)O[C@]2(C(=O)OC)[C@H](C)CC3C4C[C@H](F)C5=CC(=O)C=C[C@]5(C)[C@@]4(F)[C@@H](O)C[C@@]32C)[C@H](C)[C@@H](O)[C@]1(C)O (stereo partly drawn) [Compound 17]
IC50 [1]: 0.0416 µM
reduction of ear edema (Male Sprague-Dawley rats; 5 mg/ear): 76.59%

SMILES: CC[C@H]1OC(=O)[C@H](C)[C@@H](O)[C@H](C)[C@@H](O)[C@](C)(O)C[C@@H](C)CN(CCCCCCNCCC(=O)O[C@]2(C(=O)OC)[C@H](C)CC3C4C[C@H](F)C5=CC(=O)C=C[C@]5(C)[C@@]4(F)[C@@H](O)C[C@@]32C)[C@H](C)[C@@H](O)[C@]1(C)O (stereo partly drawn) [Compound 18]
IC50 [1]: 0.474 µM

SMILES: C[C@@H]1C[C@H]2[C@@H]3CCC4=CC(=O)C=C[C@]4(C)[C@@]3(F)[C@@H](O)C[C@]2(C)[C@@]1(O)C(=O)CO [Dexamethasone, reference compound]
reduction of ear edema (Male Sprague-Dawley rats; 1 mg/ear): 85.77%

thymus weight (Sprague-Dawley rats; 2 mg/sponge): significantly decreased
thymus weight (Sprague-Dawley rats; 10 mg/sponge): significantly decreased
plasma corticosterone concentration (Sprague-Dawley rats; 10 mg/sponge, vs vehicle control): significantly decreased
SMILES: C[C@H]1C[C@H]2[C@@H]3CCC4=CC(=O)C=C[C@]4(C)[C@@]3(Cl)[C@@H](O)C[C@]2(C)[C@@]1(O)C(=O)CO [beclomethasone]
plasma corticosterone levels (Male Balb/C mice; 1 mg/kg intranasally, mice): significantly suppressed
